In patent US8058236B2, “Aqueous inhalation pharmaceutical composition” (Development Center for Biotechnology, priority 2005, dated 2011):

How the values were obtained:
Sprague-Dawley male rats [1] = assay: In vivo bioavailability study: plasma glucose decrease after pulmonary administration to rats; design: species or system rat; details: enhancer added to insulin formulation
Protocol: Sprague-Dawley male rats weighted 200-250 g were randomly divided into 7 groups. According to the method disclosed in Enna, S. T. et al. (J. Physiol., 1972, 222: 409-414), after the rats were narcotized by abdominally injecting pentobarbital sodium (28.6 ml/kg), catheters were inserted into the trachea and the left femoral artery, respectively, from the cut neck. Group 1 was the control group, wherein each rat was administered with Formulation A only.
The collected blood samples were centrifuged at 3000 rpm in 4° C. for 15 minutes. The upper layer of the plasma was collected. […] The concentrations of insulin in the upper layer samples of plasma were determined by the utilization of a Rat Insulin ELISA Kit (Mercodia), and the pharmacokinetic parameters of the absorption enhancers were further analyzed.

Sprague-Dawley male rats [2] = assay type: in vivo, rat; details: absorption enhancer in insulin formulation, pulmonary administration
Protocol: Sprague-Dawley male rats weighted 200-250 g were randomly divided into 7 groups. […] Group 1 was the control group, wherein each rat was administered with Formulation A only.
After administering the formulations to the lung for 0, 5, 15, 30, 60, 90, 120, 180, 240, and 300 minutes, 0.25 ml of blood sample was collected from each rat. After the pulmonary administration for 5 hours, an excess amount of pentobarbital sodium (3 ml) was injected into the femoral artery of the rats. After 5 minutes, the rats were bled and then pulmonary perfusion with phosphate buffer solution was performed.
The collected first 5 ml pulmonary perfusion samples were centrifuged at 350×g in 4° C. for 10 minutes. […]
Based on the pigmentation principle of Biuret reaction (British Pharmacopoeia, p. A23 (1998)), the amount of total protein was determined by measuring the value of OD546 with Autoanalyzer Hitachi 7150; then, the value was converted into the concentration of the protein (the results are shown in Table 3).
Based on the standard operation procedures of the GSCC (German Society of Clinical Chemistry; Recommendation of the German Society for Clinical Chemistry: Z. Klin. Chem. Klin. Biochem., 10, 287-288, 1972), the activity of LDH was determined by measuring the change of OD340 with Autoanalyzer Hitachi 7150; then, the change was converted into the activity of LDH (the results are shown in Table 3).

Compound | bioavailability of insulin, maximal increase by addition of absorption enhancer (Sprague-Dawley male rats [1]) [%] | toxic side effects in the lung (Sprague-Dawley male rats [2])
CCCCCCCC/C=C\CCCCCCCC(=O)OCCOCC(OCCO)C1OCC(OCCO)C1OCCO (stereo not drawn) [Tween-80] | 84.6 | would not induce toxic side effects in the lung
LPTC-lauroyl [L-LPTC] | – | would not induce toxic side effects in the lung
